According to US7671056B2, “Piperazine-piperidine antagonists and agonists of the 5-HT1A receptor” (Wyeth LLC, priority 2005, dated 2010):

Tests used:
[1] = tested on: sexually experienced male rats (Sprague-Dawley rats); experiment: Animal model of SSRI-induced sexual dysfunction (non-contact penile erections); type: in vivo, rat
Method: The animal model is based on the finding that sexually experienced rats that are administered an SSRI, a drug used to treat certain conditions such as depression, display a reduction in the number of non-contact penile erections. SSRI treatment is associated with sexual dysfunction in human subjects. In general, the animal model exposes sexually experienced male rats (Sprague-Dawley rats) to female rats in estrous in a novel testing arena that is not the regular housing environment. The number of non-contact penile erections is assayed over a specified test period, e.g., 30 minutes (Sukoff, Rizzo, et al., 2006, Society for Neurosci. Abstr. 559.4; U.S. Application Ser. No. 60/682,3379, filed May 19, 2005). In the experiments described herein, animals were generally treated either with 0.9% saline (vehicle) or a drug (i.e., a compound of the invention) in the vehicle.
The ability of fluoxetine, an SSRI associated with sexual dysfunction in humans, to cause sexual dysfunction in the animal model was tested by examining a 10 mg/kg dose of fluoxetine or vehicle alone (0.9% saline), each administered intraperitoneally, once daily for 14 days, on the number of non-contact penile erections over a 30 minute trial period.
To examine the time course of the effects of a drug that causes sexual dysfunction, rats that were handled and tested as described above were treated acutely: rats were treated with vehicle for 6 days, and on the test day (day 7) instead of vehicle, the animals received a single dose of fluoxetine in vehicle (i.p.). For a subchronic (7 day) study, fluoxetine was administered each day for 7 days and the animals were evaluated on test day 7. For the chronic 14 day study, fluoxetine was administered each day for 14 days and the animals were tested on day 14. Each fluoxetine dose was 10 mg/kg in vehicle and was delivered i.p. on each of the test days as described above. The testing session for each section of the study was begun immediately following compound administration and the behavior observed for 30 minutes immediately following the drug administration. […]

male Sprague-Dawley rats = experiment: In vivo microdialysis of frontal cortex 5-HT (enhancement of SSRI activity); set-up: species or system rat; conditions: acute fluoxetine alone, 30 mg/kg s.c.
Method: The ability of the compounds of this invention to reduce time for onset of action of the representative SSRI fluoxetine was assessed using in vivo microdialysis. Using 2-3% halothane anesthesia (Fluothane; Zeneca, Cheshire, UK), male Sprague-Dawley rats (280-350 g; Charles River, Wilmington, Mass.) were secured in a stereotaxic frame with ear and incisor bars (David Kopf, Tujunga, Calif.) while a microdialysis guide cannula (CMA/12, CMA Microdialysis, Sweden) was directed above the dorsal lateral frontal cortex (A/P+3.2 mm, M/L−3.5 mm, D/L−1.3 mm). Coordinates were taken with a flat skull using the rat brain atlas of Paxinos and Watson (1986). […]
For in vivo neurochemical experiments, a microdialysis probe (CMA/12; active membrane length 2 mm; OD 0.5 mm; 20 kD cut-off) was pre-washed with artificial CSF (aCSF; 125 mM NaCl, 3 mM KCl, 0.75 mM MgSO4 and 1.2 mM CaCl2, pH 7.4) according to the manufacturers specifications. […] Subsequent microdialysis samples were collected for 3 h post-injection and analyzed for 5-HT content by high performance liquid chromatography (HPLC). […] Subsequent sample values were expressed as a percent change from this preinjection baseline value (or % change from baseline). Neurochemical data, excluding preinjection values, were analyzed by a two-way analysis of variance (ANOVA) with repeated measures (time). […]

## CNCCC(Oc1ccc(C(F)(F)F)cc1)c1ccccc1 (stereo not shown) [fluoxetine]
[1]; 10 mg/kg i.p. each day for 7 days (sub-chronic)
  sexual function (number of non-contact penile erections over 30 minutes): significant increase in sexual dysfunction
[1]; 10 mg/kg i.p. once daily for 14 days (chronic), vs vehicle
  sexual function (number of non-contact penile erections over 30 minutes): significant increase in sexual dysfunction
[1]; 10 mg/kg i.p. once daily for 14 days (chronic), vs vehicle, listed as Fluoxetine
  sexual function (number of non-contact penile erections over 30 minutes): decrease in sexual function
Male Sprague-Dawley rats
  frontal cortex serotonin levels: did not increase serotonin levels
